Reference: PMC9354243, “The Role of Tryptophan in π Interactions in Proteins: An Experimental Approach” (Journal of the American Chemical Society, 2022)

Key:
LmrR = biological target: LmrR; design: method as in Takeuchi et al. (SI ref 3, main ref 21); settings: 25 °C, SPR, ref Takeuchi et al. (SI ref 3, main ref 21); cited from earlier work
[1] = biological target: T1, RibU W97Y labeled with 5MeW (Lactococcus lactis subsp. cremoris, UniProt D8KIE9, W97Y); experiment: Fluorescence titration of RibU with RBF, 5MeW variant; format: binding
T1 construct: His10; made in house; host or cells: Lactococcus lactis Trp auxotroph NZ9000-trp with pMG36e-trpRS
Method: (§1) Fluorescence titration experiments of the different RibU constructs with RBF at 20 °C allowed estimation of the impact of W68 fluorination or 5-methylation on the binding affinity (Figure 3 and Table 5).
(§2) Figure 3 Titration of Trp analog labeled RibU W97Y proteins with RBF. The RBF fluorescence was measured at the indicated RBF concentrations in the absence (triangles) or presence (dots) of the W97Y RibU variant (see insets). The difference between these two signals were calculated to build the titration curve. This curve was used to compute the RBF Kd (see Experimental Section in the Supporting Information). […]
(§3) Binding assays – Fluorescence titrations of RibU with RBF.
(§4) The concentration of the riboflavin stock was established using a Jasco V-650 spectrophotometer with an ε435 of 12600 M-1.cm-1 The concentration of RibU-His was calculated using a Nanodrop (Thermo […]
(§5) Riboflavin was excited at 435 nm and emission was recorded between 450 nm and 700 nm using a FluoroLog 322 Spectrofluorometer (Jobin Yvon). […] Titration experiments were performed in a 1 mL quartz cuvette at 20 °C as described.13 In brief, purified and desalted RibU protein in gel filtration buffer was titrated with RBF and after each addition the emission spectrum was recorded twice, corrected for buffer emission and instrument response and integrated. […]

RibU W97Y [2] = biological target: T2, RibU W97Y (Lactococcus lactis subsp. cremoris, UniProt D8KIE9, W97Y); experiment: Fluorescence titration of RibU with RBF, natural Trp (W); format: binding
T2 construct: His10; made in house; host or cells: Lactococcus lactis Trp auxotroph NZ9000-trp with pMG36e-trpRS
Method: as §1
(§6) Figure 3 Titration of Trp analog labeled RibU W97Y proteins with RBF. The RBF fluorescence was measured at the indicated RBF concentrations in the absence (triangles) or presence (dots) of the W97Y RibU variant (see insets). The difference between these two signals were calculated to build the titration curve. This curve was used to compute the RBF Kd (see Experimental Section in the Supporting Information). Panels from left to right present the results for RibU W97Y, labeled with 5MeW, 5FW, 5,7diFW, and 5,6,7triFW, respectively.
as §3, §4
(§7) Riboflavin was excited at 435 nm and emission was recorded between 450 nm and 700 nm using a FluoroLog 322 Spectrofluorometer (Jobin Yvon). The excitation and emission s lits were set at 1.1 nm and 3.5 nm, respectively. Titration experiments were performed in a 1 mL quartz cuvette at 20 °C as described.13 In brief, purified and desalted RibU protein in gel filtration buffer was titrated with RBF and after each addition the emission spectrum was recorded twice, corrected for buffer emission and instrument response and integrated. The integrated emission intensities were corrected for dilution and compared to the integrated emission of riboflavin collected under these conditions in the absence […]
(§8) The Kd of RBF was derived by first determining the difference in fluorescence signal between the blan k titration with only the gel filtration buffer and the titration using the protein RibU -His in buffer. The obtained curve was fitted using equation I and the program OriginLab16 with n = number of binding sites, X = total RibU concentration, and S = maximal fluorescence signal in A.U. […]

RibU W97Y [3] = experiment: as above; format: binding, Lactococcus lactis; settings: extrapolation to RibU labeled with tetrafluoroTrp
Method: as §1, §6, §3, §4, §7, §8

[4] = biological target: T3, RibU W97Y labeled with 5FW (Lactococcus lactis subsp. cremoris, UniProt D8KIE9, W97Y); experiment: Fluorescence titration of RibU with RBF, 5FW variant; format: binding
T3 construct: His10; made in house; host or cells: Lactococcus lactis Trp auxotroph NZ9000-trp with pMG36e-trpRS
Method: as §1, §2, §3, §4, §5

[5] = biological target: T4, RibU W97Y labeled with 5,7diFW (Lactococcus lactis subsp. cremoris, UniProt D8KIE9, W97Y); experiment: Fluorescence titration of RibU with RBF, 5,7diFW variant; format: binding
T4 construct: His10; made in house; host or cells: Lactococcus lactis Trp auxotroph NZ9000-trp with pMG36e-trpRS
Method: as §1, §2, §3, §4, §5

RibU = biological target: RibU; design: method as in PMID 17289680; settings: cited from earlier work

T2 sequence (D8KIE9 whole entry W97Y): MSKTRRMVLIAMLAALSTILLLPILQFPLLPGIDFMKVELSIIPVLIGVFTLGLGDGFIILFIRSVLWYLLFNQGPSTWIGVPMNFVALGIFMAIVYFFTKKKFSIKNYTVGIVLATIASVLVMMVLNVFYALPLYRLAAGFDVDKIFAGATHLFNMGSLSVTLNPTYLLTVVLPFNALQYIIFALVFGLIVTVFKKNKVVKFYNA
T1 sequence (D8KIE9 whole entry W97Y): as above
T3 sequence (D8KIE9 whole entry W97Y): as above
T4 sequence (D8KIE9 whole entry W97Y): as above

| SMILES | Kd (LmrR) [nM] | Kd [1] [nM] | Kd (RibU W97Y [2]) [nM] | Electrostatic contribution of W68 as share of total RBF binding energy (RibU W97Y [2]; RibU containing natural Trp) | Lowering of ΔG for RBF binding (RibU W97Y [3]) [kJ/mol] | Kd [4] [nM] | Kd [5] [nM] | Kd (RibU) [nM] |
| --- | --- | --- | --- | --- | --- | --- | --- | --- |
| COc1cccc2c1C(=O)c1c(O)c3c(c(O)c1C2=O)C[C@@](O)(C(C)=O)C[C@@H]3O[C@H]1C[C@H](N)[C@H](O)[C@H](C)O1 [Dau, Daunomycin] | 350 | – | – | – | – | – | – | – |
| Cc1cc2nc3c(=O)[nH]c(=O)nc-3n(C[C@H](O)[C@H](O)[C@H](O)CO)c2cc1C [RBF, riboflavin] | – | 1.2 ± 0.1 | 1.8 ± 0.8 | 15–20% | ~8 | 5.4 ± 1 | 8.2 ± 0.9 | ~1 |
